Source: the NIST ThermoML archive (doi:10.1016/j.fluid.2014.01.019)

Assay: xn = mol fraction of the nth substance listed
Conditions: 101 kPa, Liquid; for mass density: Vibrating tube method; for speed of sound: Frequency=2 MHz, Linear variable-path acoustic interferometer

Cc1ccccc1Cl [2-chlorotoluene] + OCc1ccccc1
Conditions | mass density, 298.15 K [kg/m3] | mass density, 303.15 K [kg/m3] | mass density, 308.15 K [kg/m3] | mass density, 313.15 K [kg/m3] | speed of sound, 303.15 K [m/s] | speed of sound, 313.15 K [m/s]
x2 = 0.0507 | 1074.83 | 1071.16 | 1066.48 | 1061.94 | 1301 | 1296
x2 = 0.1134 | 1072.8 | 1068.97 | 1064.3 | 1059.77 | 1320 | 1308
x2 = 0.1507 | 1071.57 | 1067.66 | 1062.99 | 1058.47 | 1332 | 1316
x2 = 0.1894 | 1070.31 | 1066.29 | 1061.66 | 1057.14 | 1344 | 1325
x2 = 0.2477 | 1068.37 | 1064.25 | 1059.65 | 1055.13 | 1360 | 1336
x2 = 0.3059 | 1066.42 | 1062.2 | 1057.64 | 1053.16 | 1377 | 1348
x2 = 0.3686 | 1064.3 | 1060 | 1055.47 | 1051.04 | 1394 | 1360
x2 = 0.4535 | 1061.39 | 1057.02 | 1052.56 | 1048.18 | 1415 | 1377
x2 = 0.5385 | 1058.41 | 1054.04 | 1049.63 | 1045.3 | 1436 | 1393
x2 = 0.6309 | 1055.16 | 1050.78 | 1046.46 | 1042.2 | 1456 | 1411
x2 = 0.7003 | 1052.67 | 1048.32 | 1044.08 | 1039.89 | 1469 | 1426
x2 = 0.7723 | 1050.04 | 1045.77 | 1041.59 | 1037.48 | 1482 | 1442
x2 = 0.8537 | 1047.01 | 1042.88 | 1038.81 | 1034.72 | 1496 | 1458
x2 = 0.8902 | 1045.64 | 1041.6 | 1037.56 | 1033.55 | 1499 | 1466
x2 = 0.9547 | 1043.18 | 1039.28 | 1035.35 | 1031.4 | 1508 | 1478

Cc1ccccc1[N+](=O)[O-] [2-nitrotoluene] + OCc1ccccc1
Conditions | mass density, 298.15 K [kg/m3] | mass density, 303.15 K [kg/m3] | mass density, 308.15 K [kg/m3] | mass density, 313.15 K [kg/m3] | speed of sound, 303.15 K [m/s] | speed of sound, 313.15 K [m/s]
x2 = 0.0534 | 1153.93 | 1148.05 | 1144.09 | 1139.21 | 1444 | 1406
x2 = 0.1227 | 1146.45 | 1140.66 | 1136.63 | 1131.74 | 1449 | 1411
x2 = 0.1912 | 1138.96 | 1133.26 | 1129.16 | 1124.32 | 1454 | 1418
x2 = 0.2352 | 1134.11 | 1128.45 | 1124.35 | 1119.53 | 1458 | 1421
x2 = 0.2997 | 1126.89 | 1121.35 | 1117.19 | 1112.42 | 1462 | 1427
x2 = 0.3713 | 1118.76 | 1113.36 | 1109.17 | 1104.47 | 1467 | 1432
x2 = 0.4567 | 1108.91 | 1103.69 | 1099.48 | 1094.85 | 1474 | 1440
x2 = 0.5416 | 1098.93 | 1093.89 | 1089.68 | 1085.15 | 1480 | 1447
x2 = 0.6038 | 1091.49 | 1086.61 | 1082.42 | 1077.95 | 1485 | 1452
x2 = 0.6536 | 1085.47 | 1080.69 | 1076.51 | 1072.12 | 1489 | 1457
x2 = 0.7025 | 1079.47 | 1074.82 | 1070.68 | 1066.34 | 1493 | 1461
x2 = 0.743 | 1074.47 | 1069.91 | 1065.79 | 1061.49 | 1495 | 1464
x2 = 0.8128 | 1065.71 | 1061.34 | 1057.26 | 1053.06 | 1501 | 1471
x2 = 0.8551 | 1060.33 | 1056.07 | 1052.04 | 1047.91 | 1505 | 1474
x2 = 0.9351 | 1050 | 1045.96 | 1042.02 | 1038.01 | 1510 | 1481
